Reference: patent publication US20260265233A1, “BENZOTHIOPHENE DERIVATIVES AS RXFP1 AGONISTS” (BRISTOL-MYERS SQUIBB COMPANY, priority 2021, published 2026)

Target: T1, human RXFP1 (Homo sapiens, UniProt Q9HBX9)
T1 construct: expressed in transfected cells
T1 sequence (Q9HBX9 1-757): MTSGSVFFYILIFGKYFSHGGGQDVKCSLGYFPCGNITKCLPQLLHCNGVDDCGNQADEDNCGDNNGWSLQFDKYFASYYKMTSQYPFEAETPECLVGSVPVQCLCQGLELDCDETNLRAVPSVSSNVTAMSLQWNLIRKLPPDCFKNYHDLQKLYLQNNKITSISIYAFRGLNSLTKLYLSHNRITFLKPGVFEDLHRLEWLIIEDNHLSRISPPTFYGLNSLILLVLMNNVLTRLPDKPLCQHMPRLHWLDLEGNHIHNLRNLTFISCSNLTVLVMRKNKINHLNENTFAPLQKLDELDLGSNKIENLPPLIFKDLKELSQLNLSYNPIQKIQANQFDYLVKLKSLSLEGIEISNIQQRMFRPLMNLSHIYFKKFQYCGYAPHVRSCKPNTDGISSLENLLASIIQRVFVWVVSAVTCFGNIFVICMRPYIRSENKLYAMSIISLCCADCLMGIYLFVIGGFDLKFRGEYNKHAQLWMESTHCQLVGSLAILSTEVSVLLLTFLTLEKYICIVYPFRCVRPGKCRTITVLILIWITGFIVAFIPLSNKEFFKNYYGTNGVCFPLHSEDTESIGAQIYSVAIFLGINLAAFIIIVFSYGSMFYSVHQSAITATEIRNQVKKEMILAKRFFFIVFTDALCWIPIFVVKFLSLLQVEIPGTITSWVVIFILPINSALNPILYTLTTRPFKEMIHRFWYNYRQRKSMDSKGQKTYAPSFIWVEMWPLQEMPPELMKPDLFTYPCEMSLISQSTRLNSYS
Assay: hRXFP1 HEK293 cAMP assay (HTRF)
Type: cell-based
Settings: HEK293 cells stably expressing human RXFP1; 30 min at rt; intracellular cAMP by HTRF
How it was run: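 HEK293 cells stably expressing human RXFP1 treated 30 min at rt with compound (0.010 nM to 50 μM, 2% DMSO) in HBSS/HEPES buffer with 0.5 mM IBMX. Intracellular cAMP measured by HTRF (665/590 nm ratio) against a cAMP standard curve; potency fitted by 4-parameter logistic.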

Row | EC50 [nM] | SMILES
1 | 4840 | COc1ccc(C(=O)NCCS(C)(=O)=O)cc1C(=O)Nc1c(C(=O)Nc2ccc(F)c(C(F)(F)F)c2)sc2cc(C(F)(F)F)ccc12 [Example 232, N3-(2-((4-fluoro-3-(trifluoromethyl)phenyl)carbamoyl)-6-(trifluoromethyl)benzo[b]thiophen-3-yl)-4-methoxy-N1-(2-(methylsulfonyl)ethyl) isophthalamide]
2 | 1500 | COc1ccc(CNC(C)(C)CO)cc1C(=O)Nc1c(C(=O)Nc2ccc(F)c(C(F)(F)F)c2)sc2cc(C(F)(F)F)ccc12 [Example 235, N-(4-fluoro-3-(trifluoromethyl)phenyl)-3-(5-(((1-hydroxy-2-methylpropan-2-yl)amino)methyl)-2-methoxy-benzamido)-6-(trifluoromethyl) benzo[b] thiophene-2-carboxamide]
3 | 1390 | COc1ccc(CNCC(C)(C)O)cc1C(=O)Nc1c(C(=O)Nc2ccc(F)c(C(F)(F)F)c2)sc2cc(C(F)(F)F)ccc12 [Example 236, N-(4-fluoro-3-(trifluoromethyl)phenyl)-3-(5-(((2-hydroxy-2-methylpropyl)amino)methyl)-2-methoxy-benzamido)-6-(trifluoromethyl) benzo[b] thiophene-2-carboxamide]
4 | 3770 | COc1ccc(C(=O)NCC(C)(C)O)cc1C(=O)Nc1c(C(=O)Nc2ccc(F)c(C(F)(F)F)c2)sc2cc(C(F)(F)F)ccc12 [Example 237, N3-(2-((4-fluoro-3-(trifluoromethyl)phenyl)carbamoyl)-6-(trifluoromethyl)benzo[b]thiophen-3-yl)-N1-(2-hydroxy-2-methylpropyl)-4-methoxy-isophthalamide]

Second part, the molecule before the results:

Row | SMILES | EC50 [nM]
5 | COc1ncc(N2CC3(COC3)C2)cc1C(=O)Nc1c(C(=O)Nc2ccc(F)c(C(F)(F)F)c2)sc2cc(C(F)(F)F)ccc12 [Example 233, N-(2-((4-fluoro-3-(trifluoromethyl)phenyl)carbamoyl)-6-(trifluoromethyl)benzo[b]thiophen-3-yl)-2-methoxy-5-(2-oxa-6-azaspiro[3.3]heptan-6-yl)nicotinamide] | 4650
6 | COc1ncc(N2CC3(C2)CS(=O)(=O)C3)cc1C(=O)Nc1c(C(=O)Nc2ccc(F)c(C(F)(F)F)c2)sc2cc(C(F)(F)F)ccc12 [Example 234, 5-(2,2-dioxido-2-thia-6-azaspiro[3.3]heptan-6-yl)-N-(2-((4-fluoro-3-(trifluoromethyl)phenyl)carbamoyl)-6-(trifluoromethyl)benzo[b]thiophen-3-yl)-2-methoxy-nicotinamide] | 1340
7 | COc1ccc(C(=O)N2CC3(COC3)C2)cc1C(=O)Nc1c(C(=O)Nc2ccc(F)c(C(F)(F)F)c2)sc2cc(C3CC3)ncc12 [Example 238, 6-cyclopropyl-N-(4-fluoro-3-(trifluoromethyl)phenyl)-3-(2-methoxy-5-(2-oxa-6-azaspiro[3.3]heptane-6-carbonyl)benzamido) thieno[3,2-c]pyridine-2-carboxamide] | 1400
8 | COc1ccc(C(=O)N2CC(C)(C)C2)cc1C(=O)Nc1c(C(=O)Nc2ccc(F)c(C(F)(F)F)c2)sc2cc(Cl)ncc12 [Example 240, 6-chloro-3-(5-(3,3-dimethyl-azetidine-1-carbonyl)-2-methoxy-benzamido)-N-(4-fluoro-3-(trifluoromethyl)phenyl)thieno [3,2-c]pyridine-2-carboxamide] | 3300
9 | COc1ccc(C(=O)N2CCC(O)CC2)cc1C(=O)Nc1c(C(=O)Nc2ccc(F)c(C(F)(F)F)c2)sc2cc(Cl)ncc12 [Example 241, 6-chloro-N-(4-fluoro-3-(trifluoromethyl)phenyl)-3-(5-(4-hydroxy-piperidine-1-carbonyl)-2-methoxy-benzamido) thieno[3,2-c]pyridine-2-carboxamide] | 3900
10 | COc1ccc(C2=NOC3CNCC23)cc1C(=O)Nc1c(C(=O)Nc2ccc(F)c(C(F)(F)F)c2)sc2cc(C(F)(F)F)ccc12 (stereo not shown) [Example 246, N-(4-fluoro-3-(trifluoromethyl)phenyl)-3-(2-methoxy-5-(3a,5,6,6a-tetrahydro-4H-pyrrolo[3,4-d]isoxazol-3-yl)benzamido)-6-(trifluoromethyl) benzo[b] thiophene-2-carboxamide] | 724
